What was measured:
[1] = Washing test on stained fabric with perhydrolase and substrate, blueberry stain; settings: 50 mM substrate, 60 min., 40° C.; in comparison with methyl acetate; FIG. 1
Procedure: (§1) • blueberry juice on cotton: product no. C15 from CFT B. V. Vlaardingen, Holland • tea on cotton: product no. 167, Eidgenössische Material- and Prüfanstalt (EMPA) Testmaterialien AG, St. Gallen, Switzerland
(§2) After incubation, the stains were washed three times (3×), dried and fixed. Intensity was measured with a colorimeter Cm508d (Minolta). For this test, round pieces of the test fabric (diameter 10 mm) were incubated in 1 ml alkaline solution in a 24 well microtitration plate. Each test was carried out as a triple determination against a triply determined control. After washing, the degree of whiteness of the washed fabrics was measured in comparison with a whiteness standard (d/8, Ø 8 mm, SCl/SCE), which had been set at 100% (L-value determination). The measurement was made using a colorimeter (Minolta Cm508d) with a light setting of 10°/D65. The results were expressed as percent power, wherein the difference of the reflectance value of the base washing agent without enzymes but with substrate was normalized to 100% (with the comparison substrate methyl acetate).

[2] = Toxicity (statement); settings: in contrast to methyl acetate
[3] = Washing test on stained fabric with perhydrolase and substrate, tea stain; settings: 50 mM substrate, 60 min., 40° C.; in comparison with methyl acetate; FIG. 1
Procedure: as §1, §2

[4] = Water solubility (statement); assay type: physicochemical; settings: in contrast to methyl acetate

Row | washing power for blueberry stains [1] | washing power for tea stains [3] | water solubility [4] | SMILES | toxicity [2]
1 | comparable | significantly better | – | CC(=O)OCCOC(C)=O [Ethylene glycol diacetate] | non-toxic
2 | comparable | comparable | highly water-soluble | CC(=O)OCC(C)OC(C)=O (stereo not shown) [Propylene glycol diacetate] | non-toxic

Reference: patent publication US20100196287A1, “Compositions Comprising Perhydrolases and Alkylene Glycol Diacetates” (priority 2007, published 2010)
